Measurements reported in patent publication US20260000655A1, “PHARMACEUTICAL COMPOSITION FOR USE IN PREVENTION OR TREATMENT OF LIFESTYLE-RELATED DISEASE” (priority 2022, published 2026).

What was measured:
[1] = tested on: high-fat diet-induced obesity model mice; experiment: Sirius Red staining and collagen amount in mouse tissue; format: in vivo; details: HPH-15 10 mg/kg or 100 mg/kg, metformin 300 mg/kg, orally 28 days, Western blotting
Protocol: High-fat diet-induced obesity model mice were prepared in the same manner as in Example 7. Then, HPH-15 (10 mg/kg or 100 mg/kg, […]) dissolved in olive oil or metformin (300 mg/kg, […]) was orally administered once a day for 28 days. Olive oil alone was administered as a control. After 28 days of administration of each, the liver and the epididymal fat of the high-fat diet-induced obesity model mice were stained with Sirius Red and observed using a microscope.
Further, high-fat diet-induced obesity model mice were prepared in the same manner as in Example 7. Then, HPH-15 (10 mg/kg or 100 mg/kg, […]) dissolved in olive oil or metformin (300 mg/kg, […]) was orally administered once a day for 28 days. Olive oil alone was administered as a control. After 28 days of administration of each, equal amounts (50 mg) of tissue pieces were collected from the liver and epididymal adipose tissues of the high-fat diet-induced obesity model mice, transferred to 1.5 mL Eppendorf tubes, and washed twice with PBS. After washing, the tissue pieces were transferred to BIOMASHER II, […] of RIPA buffer was added, and the tissue pieces were homogenized on ice. After homogenization, the tissue pieces were centrifuged (10,000 rpm, 4° C., 5 min) and the supernatant was obtained as a protein solution. The concentration of the proteins thus obtained was corrected based on the protein concentration measured by the BCA method using bicinchoninic acid (BCA), thereby preparing samples for Western blotting. Western blotting was quantified using ImageJ to calculate the amount of collagen.

[2] = tested on: high-fat diet-induced obesity model mice; experiment: H&E staining of mouse tissue; format: in vivo; details: metformin 300 mg/kg orally 28 days; compared to control
Protocol: High-fat diet-induced obesity model mice were prepared in the same manner as in Example 7. Note that the high-fat diet-induced obesity model mice develop liver damage and are thus used as a liver disease model. Then, HPH-15 (10 mg/kg or 100 mg/kg, […]) dissolved in olive oil or metformin (300 mg/kg, […]) was orally administered once a day for 28 days. Olive oil alone was administered as a control. After administration of each for 28 days, the liver, epididymis, and muscle of the high-fat diet-induced obesity model mice were stained with H&E and observed using a microscope. The results of H&E staining of the liver are shown in FIG. 12A, the results of H&E staining of the epididymis are shown in FIG. 12B, and the results of H&E staining of the muscle are shown in FIG. 12C.

For CN(C)C(=N)N=C(N)N [metformin, reference compound], which “amount of collagen in the epididymal adipose tissue” value [1] is on record?
The value was “no collagen-reducing effect was confirmed”.

What about the “amount of collagen in the liver tissue” value [1] of the same compound?
The value was “no collagen-reducing effect was confirmed”.

And the “fat area (H&E)” value [2]?
The value was “only slightly reduced the fat area”.
